Legend:
[1] = tested on: Normal Human Breast Epithelial Cells; assay: In vitro cytotoxicity assay (trypan blue), normal breast cells; assay type: cell-based; conditions: for Cytoxicity (% Dead cells): Normal Human Breast Epithelial Cells
Description: (§1) Normal and cancerous human breast cells were plated at a density of ˜70,000-80,000 cells/well in 24 well plates. Each test compound was added to the cell media at the indicated concentration and incubated at 37° C. in a CO2 incubator for the indicated time. Following incubation, cells were harvested and exposed to trypan blue dye; dead cells were stained exclusively (living cells remained unstained) and counted.

[2] = tested on: MCF-7 Breast Cancer cells; assay: In vitro cytotoxicity assay (trypan blue), MCF-7; assay type: cell-based, human; conditions: for Cytoxicity (% Dead cells): MCF-7 Breast Cancer cells
Description: as §1

[3] = tested on: C33A cervical carcinoma cells; assay: Cell viability, cellular ATP levels (ViaLight), C33A; assay type: cell-based, human; conditions: 72 hours; for effect on ATP levels in C33A cancer cell line compared with HMEC and MRC-5 normal cells (FIG. 1): 0.05 μM
Text: (§2) C33A cervical carcinoma cells, Mrc-5 normal lung fibroblasts, PC-3 human prostatic carcinoma cell line, OVCAR-3 human ovarian carcinoma cal line, H460 large cell lung cancer cell line, A549 human lung carcinoma cell line, H1299 human non-small cell lung cancer cells, MCF-7 human breast cancer cell line, SW-480 human adenocarcinoma cell line, B16-F1 mouse melanoma cell line (American Type Culture Collection, Manassas, Va. USA), HMEC normal mammary epithelial cells (Clonetics San Diego, Calif., USA) and ADR-RES human breast cancer cell line (NCI, MD, USA) were cultured in the media recommended by the American Type Culture Collection. The cells lines were plated in 96-well microtiter plates (PerkinElmer Life Sciences Inc, Boston, Mass., USA) at a density that allowed them to reach confluence after 4 days of growth. One day after plating, the cells were treated with various concentrations of Compound 138T or Compound 139T. Stock solutions of the compounds were prepared in dimethyl sulfoxide (Sigma-Aldrich Inc., St. Louis, Mo., USA), diluted in media and then added to the cells. The total dimethyl sulfoxide on the cells was 1%. After 3 days of incubation the ATP levels in the cells were quantified using the luminescent ViaLight detection system (Bio-Whittaker, Md., USA). The results were plotted relative to untreated control cells, which were set at 100 (FIG. 1).

[4] = tested on: PC-3 human prostatic carcinoma cell line; assay: Cell viability, cellular ATP levels (ViaLight), PC-3; assay type: cell-based; conditions: Cell line PC-3, Prostate, 72 hours, read-out: IC50 of Compound 138T
Text: as §2

[5] = tested on: OVCAR-3 human ovarian carcinoma cal line; assay: Cell viability, cellular ATP levels (ViaLight), OVCAR-3; assay type: cell-based; conditions: Cell line OVCAR-3, Ovary, 72 hours, read-out: IC50 of Compound 138T
Text: as §2

[6] = tested on: H460 large cell lung cancer cell line; assay: Cell viability, cellular ATP levels (ViaLight), H460; assay type: cell-based; conditions: Homo sapiens, NCI-H460, Cell line H460, NSCL-LC, 72 hours, read-out: IC50 of Compound 138T
Text: as §2

[7] = tested on: A549 human lung carcinoma cell line; assay: Cell viability, cellular ATP levels (ViaLight), A549; assay type: cell-based; conditions: Cell line A549, NSCL-aden, 72 hours, read-out: IC50 of Compound 138T
Text: as §2

[8] = tested on: H1299 human non-small cell lung cancer cells; assay: Cell viability, cellular ATP levels (ViaLight), H1299; assay type: cell-based; conditions: NCI-H1299, Cell line H1299, NSCL-LC, 72 hours, read-out: IC50 of Compound 138T
Text: as §2

[9] = tested on: ADR-RES human breast cancer cell line; assay: Cell viability, cellular ATP levels (ViaLight), ADR-RES; assay type: cell-based; conditions: Cell line NCI/ADR-RES, Breast (Mutli-drug resistant), 72 hours, read-out: IC50 of Compound 138T
Text: as §2

[10] = tested on: MCF-7 human breast cancer cell line; assay: Cell viability, cellular ATP levels (ViaLight), MCF-7; assay type: cell-based; conditions: MCF7, Cell line MCF-7, Breast, 72 hours, read-out: IC50 of Compound 138T
Text: as §2

[11] = tested on: SW-480 human adenocarcinoma cell line; assay: Cell viability, cellular ATP levels (ViaLight), SW-480; assay type: cell-based; conditions: SW480, Cell line SW-480, Colorectal, 72 hours, read-out: IC50 of Compound 138T
Text: as §2

[12] = tested on: B16-F1 mouse melanoma cell line; assay: Cell viability, cellular ATP levels (ViaLight), B16-F1; assay type: cell-based; conditions: Cell line B16-F1, Murine Melanoma, 72 hours, read-out: IC50 of Compound 138T
Text: as §2

[13] = tested on: HMEC normal mammary epithelial cells; assay: Cell viability, cellular ATP levels (ViaLight), HMEC; assay type: cell-based; conditions: 72 hours
Text: as §2

[14] = tested on: human cervical cancer C33A; assay: Antitumor activity in vivo, C33A tumors in SCID mice (tumor volume); set-up: species or system CB17 SCID/SCID mice
Description: The C33A human cervical cancer cells were maintained in RPMI (Hyclone, Utah, USA) supplemented with 10% inactivated fetal bovine serum (Bio-Whittaker, Md., USA) and 1% penicillin-streptomycin-L-Glutamine (Gibco, N.Y., USA), under 5% CO2 at 37° C., and passaged twice a week. The cells were grown at a confluency lower than 70% and than collected with Trypsin (Bio-Whittaker, Md., USA). Cells were then centrifuged and washed two time in phosphate buffer solution (PBS) and resuspended in PBS at 2×10^6 cells per 100 μl. Viability was examined by staining with trypan blue (Gibco, N.Y., USA) and only flasks with cell viability greater than 95% were used for in vivo studies.
(§3) C33A cells were injected subcutaneously into the flanks of the female CB17 SCID/SCID mice. Each mouse was inoculated with a suspension of 2×10^6 tumor cells per 100 μl on day 0. There were ten mice in each treatment group, i.e., in the control group, the positive control group and the Compound 138T group.
(§4) Treatments started on day fourteen after C33A cells transplantation. Compound 138T was administered intravenously once daily for five consecutive days at a dose of 8 mg/kg. a solution of Compound 138T was prepared fresh daily in a vehicle solution of 5% Dextrose (Abbot Laboratories, QC, Canada) and 2% Tween20 (Sigma, St. Louis, Mo., USA). The control group was treated with vehicle alone. The injection volume for both, the Compound 138T treated group and the control group was 150 μl. The positive control group was treated once every 3 days for five times with cisplatin (Sigma, St. Louis, Mo., USA) at a dose of 4 mg/kg. Cisplatin was formulated in PBS on each day of the injection and was administered intraperitoneally in an injection volume of 80 μl.
(§5) The mice were weighed and the tumors were measured on day 13 and every 2 days after the treatment commenced. Observation continued for 40 days after initial tumor implantation. The changes in body weight and in the calculated tumor volume were plotted (FIG. 2 to 4).

[15] = Body weight and survival of C33A tumor-bearing SCID mice; assay type: in vivo, CB17 SCID/SCID mice
Description: as §3, §4, §5

[16] = tested on: MBA-MB231 Breast Cancer cells; assay: In vitro cytotoxicity assay (trypan blue), MBA-MB231; assay type: cell-based, human; conditions: for Cytoxicity (% Dead cells): MBA-MB231 Breast Cancer cells, 72 h
Description: as §1

[17] = tested on: Normal and cancerous human breast cells; assay: In vitro cytotoxicity assay, selective toxicity to oncogenic cells relative to normal cells; assay type: cell-based; conditions: trypan blue cytotoxicity assay
Description: as §1

[18] = 8 mg/kg intravenously once daily for five consecutive days from day fourteen

Ethyl-meta-cyclononylprodiginine
Cytoxicity (% Dead cells) ([1]; 0.2 μM, 24 h): 10%
Cytoxicity (% Dead cells) ([1]; 1.0 μM, 24 h): 9%
Cytoxicity (% Dead cells) ([1]; 2.0 μM, 24 h): 15%
Cytoxicity (% Dead cells) ([2]; 0.2 μM, 24 h): 45%
Cytoxicity (% Dead cells) ([2]; 1.0 μM, 24 h): 62%
Cytoxicity (% Dead cells) ([2]; 2.0 μM, 24 h): 65%

CCCCc1cc(C)c(C=C2N=C(c3ccc[nH]3)C=C2OC)[nH]1 [Compound 139T, 5′-(5-Butyl-3-methyl-1H-pyrrol-2-ylmethylene)-4′-methoxy-1H,5′H-[2,2′]bipyrrolyl]
effect on ATP levels in C33A cancer cell line compared with HMEC and MRC-5 normal cells (FIG. 1) [3]: significantly more effective at lowering ATP levels in C33A cancer cell line

COC1=CC(c2ccc[nH]2)=NC1=Cc1[nH]c(C)cc1C [Compound 138T, 5′-(3,5-Dimethyl-1H-pyrrol-2-ylmethylene)-4′-methoxy-1H,5′H-[2,2′]bipyrrolyl]
effect on ATP levels in C33A cancer cell line compared with HMEC and MRC-5 normal cells (FIG. 1) [3]: significantly more effective at lowering ATP levels in C33A cancer cell line
IC50 ([3]; Homo sapiens, C-33-A, Cell line C3AA, Cervix, ATP levels, read-out: IC50 of Compound 138T): 30 nM
IC50 [4]: 50 nM
IC50 [5]: 30 nM
IC50 [6]: 60 nM
IC50 [7]: 80 nM
IC50 [8]: 70 nM
IC50 [9]: 70 nM
IC50 [10]: 70 nM
IC50 [11]: 50 nM
IC50 [12]: 20 nM
effect on ATP levels in cancer cell lines compared with normal HMEC cell line ([13]; ten cancer cell lines): significantly more effective at lowering ATP levels in all the cancer cell lines
IC50 ([13]; Homo sapiens, Cell line HMEC, Normal Breast, ATP levels, read-out: IC50 of Compound 138T): 2000 nM
effect on human cervical tumors implanted in SCID mice ([14]; 8 mg/kg intravenously once daily for five consecutive days): significantly reduces the human cervical tumors implanted in SCID mice
tumor volume curve versus control, values in standard error of the mean (FIG. 4) [14, 18]: significantly different from control curve for a longer period of time, until day 39
tumor volume versus control, values expressed in 95% confidence interval (FIG. 3) [14, 18]: significantly less than control until day 29
tumor volume curve compared with the cisplatin treated group ([14]; 8 mg/kg intravenously once daily for five consecutive days, cisplatin 4 mg/kg intraperitoneally): follows the tumor volume curve of the cisplatin treated group until day 39
weight loss ([15]; 8 mg/kg intravenously once daily for five consecutive days, day 22): 10%

CCCCC1CCCCCCc2cc1c(/C=C1\N=C(c3ccc[nH]3)C=C1OC)[nH]2 (stereo not shown) [Butyl-meta-cycloheptylprodiginine, 2-Butyl-11-((3-methoxy-5-(1H-pyrrol-2-yl)-2H-pyrrol-2-ylidene)methyl)-10-azabicyclo[7.2.1]dodeca-9(12),11-diene]
cell death in normal cells ([1]; 0.25 mM concentration (Table 10)): 5%
Cytoxicity (% Dead cells) ([1]; 0.25 μM, 72 h): 5%
Cytoxicity (% Dead cells) ([1]; 1.0 μM, 72 h): 5%
Cytoxicity (% Dead cells) ([1]; 2.0 μM, 72 h): 15%
cell death in cancer cells ([2]; 0.25 mM concentration (Table 10), first cancer cell value, MCF-7 in Table 10): 70%
Cytoxicity (% Dead cells) ([2]; 0.25 μM, 72 h): 70%
Cytoxicity (% Dead cells) ([2]; 1.0 μM, 72 h): 100%
Cytoxicity (% Dead cells) ([2]; 2.0 μM, 72 h): 100%
cell death in cancer cells ([16]; 0.25 mM concentration (Table 10), second cancer cell value, MBA-MB231 in Table 10): 64%
Cytoxicity (% Dead cells) ([16]; 0.25 μM): 64%
Cytoxicity (% Dead cells) ([16]; 1.0 μM): 100%
Cytoxicity (% Dead cells) ([16]; 2.0 μM): 100%
selective toxicity to breast cancer cells relative to normal human breast epithelial cells [17]: selectively killed the breast cancer cells

N.N.[Cl][Pt][Cl] [cisplatin]
weight loss ([15]; 4 mg/kg intraperitoneally once every 3 days for five times, day 29): 28%
mice died in treated group ([15]; 4 mg/kg intraperitoneally once every 3 days for five times, days 29 and 32, ten mice per group): Two
